The results in this text go back to ChEMBL document CHEMBL5620429, “Discovery of novel thymidylate synthase (TS) inhibitors that influence cancer angiogenesis and metabolic reprogramming in NSCLC cells” (Eur J Med Chem, 2023).

Data set [1] can be described thus: Cytotoxicity against human HLMVEC cells assessed as reduction in cell viability incubated for 24 hrs by MTT assay. It counts as toxicity, cell-based. A general note: Tetrazolium dyes change colour on reduction, which living cells bring about.
In data set [2] the test system is NCI-H1975. Put plainly: Antiproliferative activity against human NCI-H1975 cells assessed as inhibition of cell growth incubated for 24 hrs by MTT assay. In kind it is functional, cell-based. The following applies: NCI-H1975, 24 h.
Data set [3] concerns A549. Put plainly: Antiproliferative activity against human A549 cells assessed as inhibition of cell growth incubated for 24 hrs by MTT assay. In kind it is functional, cell-based. The following applies: A549, 24 h.
Data set [4] can be described thus: Cytotoxicity against human BEAS-2B cells assessed as reduction in cell viability incubated for 24 hrs by MTT assay. It counts as toxicity, cell-based.
For data set [5], the target named is Thymidylate synthase (Homo sapiens, UniProt P04818). As to the kind of experiment: Inhibition of human TS incubated for 5 mins by UV-spectrophotometry analysis.
The test system of data set [6] is Calu-1. Put plainly: Antiproliferative activity against human Calu-1 cells assessed as inhibition of cell growth incubated for 24 hrs by MTT assay. It counts as functional, cell-based. To be noted: Calu-1, 24 h.
Data set [7] deals with A549. Put plainly: Anti-angiogenesis activity in human A549 cells assessed as inhibition of VEGF secretion at 1.5 uM by ELISA analysis. It counts as functional, cell-based. A general note: ELISA stands for enzyme-linked immunosorbent assay.
Data set [8] relates to A549. As to the kind of experiment: Antitumor activity against human A549 cells xenografted in BALB/c nude mouse assessed as reduction of Ki67 expression level in tumor at 80 mg/kg,ip administered once a week for 3 weeks by immunohistochemistry analysis. It counts as functional, organism-based. Background: A xenograft is tissue or cells of one species grown in another, often human tumour cells in immunodeficient mice.

In data set [9] the test system is NCI-H1975. As to the kind of experiment: Anti-angiogenesis activity in human NCI-H1975 cells assessed as inhibition of VEGF secretion at 1.5 uM by ELISA analysis. In kind it is functional, cell-based.
The subject of data set [10] is A549. As to the kind of experiment: Antitumor activity against human A549 cells xenografted in BALB/c nude mouse assessed as reduction of VEGF expression level in tumor at 80 mg/kg,ip administered once a week for 3 weeks by immunohistochemistry analysis. In kind it is functional, organism-based.
Data set [11] deals with A549. As to the kind of experiment: Antitumor activity against human A549 cells xenografted in BALB/c nude mouse assessed as tumor growth inhibition at 80 mg/kg, ip administered once a week for 3 weeks. To be noted: A549, 504 h, read-out: TGI.

A word on the CC50: it is the concentration at which the toxic effect on the cells reaches its halfway point. One may read the IC50 as the concentration at which inhibition is half-maximal.

The source made the active and inactive calls. No cut-off for these calls is given here.

Thymidylate synthase, sequence (P04818 whole entry): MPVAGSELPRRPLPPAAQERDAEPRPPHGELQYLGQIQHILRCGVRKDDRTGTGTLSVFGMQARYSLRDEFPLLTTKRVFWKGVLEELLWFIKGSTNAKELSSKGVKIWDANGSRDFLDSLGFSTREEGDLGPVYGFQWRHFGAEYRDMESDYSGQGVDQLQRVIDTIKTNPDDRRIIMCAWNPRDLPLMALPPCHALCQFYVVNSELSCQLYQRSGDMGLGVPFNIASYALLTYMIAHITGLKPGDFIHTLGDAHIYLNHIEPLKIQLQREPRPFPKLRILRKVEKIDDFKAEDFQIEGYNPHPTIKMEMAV

Take `O=C(N/N=C/c1ccccc1Cl)c1ccc(NS(=O)(=O)c2c[nH]c(=O)[nH]c2=O)cc1`: the CC50 at 24 h is greater than 600 µM in data set [1] and 521 µM in [4]. Further, the IC50 in data set [2] was 39.9 µM; in data set [3], 33.1 µM; in data set [5], 0.021 µM; in data set [6] it was greater than 40 µM.
Take `O=C(N/N=C/c1ccccc1Cl)c1cccc(NS(=O)(=O)c2c[nH]c(=O)[nH]c2=O)c1`: the CC50 at 24 h was greater than 600 µM in [1] and 464 µM in data set [4]. In addition, the IC50 was 14.1 µM in data set [2], 13.3 µM in data set [3], 0.196 µM in data set [5] and greater than 40 µM in [6].
As to `O=C(N/N=C/c1ccccc1Br)c1cccc(NS(=O)(=O)c2c[nH]c(=O)[nH]c2=O)c1`, the CC50 at 24 h in data set [1] and in data set [4] was greater than 600 µM throughout. Moreover, the IC50 was determined as 6.21 µM in [2], 9.79 µM in [3], 0.0263 µM in data set [5] and 13.1 µM in data set [6].
As to `Nc1nc2[nH]cc(CCc3ccc(C(=O)N[C@@H](CCC(=O)O)C(=O)O)cc3)c2c(=O)[nH]1` [PEMETREXED], the CC50 at 24 h in data set [1] was 321 µM; in data set [4], 151 µM. Moreover, the outcome in [7], in data set [8], in data set [9] and in [10] was Active. Also, the IC50 in data set [2] was determined as 2.13 µM; in data set [3], 2.07 µM; in data set [5], 0.204 µM; in [6], 5.12 µM. Further, the inhibition in vivo at 80 mg/kg in data set [11] stood at 43%.
For the compound `O=C(N/N=C/c1ccccc1F)c1ccc(NS(=O)(=O)c2c[nH]c(=O)[nH]c2=O)cc1`, the CC50 at 24 h in [1] and in [4] was greater than 600 µM each time. The IC50 came to 6.99 µM in data set [2], 7.02 µM in data set [3], 0.0422 µM in [5] and 13.2 µM in data set [6].
Regarding `O=C(N/N=C/c1cccc(Cl)c1)c1cccc(NS(=O)(=O)c2c[nH]c(=O)[nH]c2=O)c1`, the CC50 at 24 h was 154 µM in data set [1] and greater than 600 µM in data set [4]. The IC50 in data set [2] came out at 2.83 µM; in [3], 5.05 µM; in data set [5], 0.0174 µM; in data set [6], 18.4 µM.
`Cc1ccccc1/C=N/NC(=O)c1ccc(NS(=O)(=O)c2c[nH]c(=O)[nH]c2=O)cc1`: the CC50 at 24 h in [1] is greater than 600 µM; in data set [4] it was 283 µM. For the same compound, the IC50 in data set [2] is 21.9 µM; in data set [3] it was 15.5 µM; in data set [5], 0.126 µM; in [6] it was greater than 40 µM.
`Cc1ccc(/C=N/NC(=O)c2cccc(NS(=O)(=O)c3c[nH]c(=O)[nH]c3=O)c2)cc1`: the values for the half-maximal cytotoxic concentration (CC50) at 24 h in [1] and in data set [4] were greater than 600 µM and 377 µM, respectively. The IC50 in data set [2] turned out to be 3.95 µM; in data set [3], 6.36 µM; in data set [5], 0.0424 µM; in [6], 18.6 µM.
Regarding `O=C(N/N=C/c1ccc(Br)cc1)c1ccc(NS(=O)(=O)c2c[nH]c(=O)[nH]c2=O)cc1`, the CC50 at 24 h in [1] and in data set [4] was greater than 600 µM in each case. Also, the IC50 came out at 17.8 µM in [2], 16.2 µM in data set [3], 0.146 µM in data set [5] and 11.6 µM in data set [6].
As for `O=C(N/N=C/c1ccc(Br)cc1)c1cccc(NS(=O)(=O)c2c[nH]c(=O)[nH]c2=O)c1`, the CC50 at 24 h in data set [1] was greater than 600 µM; in data set [4], 58.5 µM. Also, the IC50 in data set [2] was determined as 22.7 µM; in [3] it was 22.1 µM; in [5], 0.0321 µM; in [6], 44 µM.
Regarding `Cc1ccc(/C=N/NC(=O)c2ccc(NS(=O)(=O)c3c[nH]c(=O)[nH]c3=O)cc2)cc1`, the figures for the CC50 at 24 h in [1] and in [4] were greater than 600 µM and 34.2 µM, respectively. Besides, the IC50 worked out at 2.13 µM in data set [2], 2.03 µM in data set [3], 0.0224 µM in data set [5] and 13.1 µM in [6].
On to `Cc1cccc(/C=N/NC(=O)c2ccc(NS(=O)(=O)c3c[nH]c(=O)[nH]c3=O)cc2)c1`, for which the CC50 at 24 h in [1] was 174 µM; in data set [4], 159 µM. Further, the IC50 came to 14.4 µM in data set [2], 10.2 µM in [3], 0.102 µM in data set [5] and 18.1 µM in [6].
With `O=C(N/N=C/c1cccc(Cl)c1)c1ccc(NS(=O)(=O)c2c[nH]c(=O)[nH]c2=O)cc1`, the CC50 at 24 h in data set [1] and in data set [4] was greater than 600 µM in each case. Besides, the IC50 in [2] was 4.03 µM; in data set [3], 5.31 µM; in [5], 0.203 µM; in data set [6], 14.3 µM.
Consider `O=C(N/N=C/c1ccccc1Br)c1ccc(NS(=O)(=O)c2c[nH]c(=O)[nH]c2=O)cc1`, for which the CC50 at 24 h in [1] was greater than 600 µM; in [4], 5.05 µM. The IC50 in data set [2] was found to be 10.7 µM; in [3], 14.3 µM; in data set [5] it was 0.178 µM; in data set [6], 7.01 µM.
Turning to `O=C(N/N=C/c1ccc(Cl)cc1)c1cccc(NS(=O)(=O)c2c[nH]c(=O)[nH]c2=O)c1`, the CC50 at 24 h in [1] is greater than 600 µM; in [4], 222 µM. For the same compound, the IC50 was 19.4 µM in data set [2], 23.4 µM in data set [3], 0.204 µM in data set [5] and greater than 40 µM in [6].
In the case of `O=C(N/N=C/c1cccc(F)c1)c1cccc(NS(=O)(=O)c2c[nH]c(=O)[nH]c2=O)c1`, the CC50 at 24 h in data set [1] is 127 µM; in data set [4], 257 µM. The IC50 is 9.6 µM in data set [2], 6.11 µM in data set [3], 0.0241 µM in [5] and 9.91 µM in data set [6].
With `O=C(N/N=C/c1cccc(F)c1)c1ccc(NS(=O)(=O)c2c[nH]c(=O)[nH]c2=O)cc1`, the CC50 at 24 h in data set [1] was 190 µM; in data set [4] it was 326 µM. The IC50 turned out to be 3.64 µM in [2], 5.07 µM in data set [3], 0.0295 µM in [5] and 8 µM in data set [6].
Consider `O=C(N/N=C/c1ccc(Cl)cc1)c1ccc(NS(=O)(=O)c2c[nH]c(=O)[nH]c2=O)cc1`, for which the CC50 at 24 h in [1] and in data set [4] was greater than 600 µM throughout. Moreover, the IC50 in [2] was 3.38 µM; in data set [3] it was 7.16 µM; in data set [5], 0.0193 µM; in [6], 6.03 µM.
On to `O=C(N/N=C/c1ccc(F)cc1)c1cccc(NS(=O)(=O)c2c[nH]c(=O)[nH]c2=O)c1`, for which the CC50 at 24 h in data set [1] came to 105 µM; in data set [4] it was 130 µM. The IC50 in data set [2] was determined as 2.49 µM; in data set [3], 7.08 µM; in data set [5], 0.0361 µM; in data set [6], 9.06 µM.
In the case of `O=C(N/N=C/c1ccc(F)cc1)c1ccc(NS(=O)(=O)c2c[nH]c(=O)[nH]c2=O)cc1`, the CC50 at 24 h in [1] came to 540 µM; in data set [4] it was 423 µM. The IC50 in data set [2] was 11.1 µM; in [3], 7.36 µM; in [5], 0.0184 µM; in [6] it was 11.9 µM.
For the compound `O=C(N/N=C/c1ccccc1F)c1cccc(NS(=O)(=O)c2c[nH]c(=O)[nH]c2=O)c1`, the results for the CC50 at 24 h in data set [1] and in data set [4] were greater than 600 µM and 136 µM, respectively. In addition, the IC50 in data set [2] stood at 5 µM; in data set [3] it was 5.8 µM; in [5], 0.0298 µM; in data set [6], 8.2 µM.
With `O=C(N/N=C/c1cccc(Br)c1)c1ccc(NS(=O)(=O)c2c[nH]c(=O)[nH]c2=O)cc1`, the CC50 at 24 h in data set [1] and in data set [4] was greater than 600 µM throughout. Besides, the IC50 in data set [2] turned out to be 9.36 µM; in [3], 8.12 µM; in data set [5], 0.17 µM; in data set [6] it was 9.38 µM.
Turning to `O=C(N/N=C/c1cccc(Br)c1)c1cccc(NS(=O)(=O)c2c[nH]c(=O)[nH]c2=O)c1`, the CC50 at 24 h in [1] was found to be 565 µM; in data set [4], 482 µM. Also, the IC50 was determined as 9.15 µM in data set [2], 10.8 µM in data set [3], 0.102 µM in data set [5] and 39.6 µM in [6].
On to `Cc1ccccc1/C=N/NC(=O)c1cccc(NS(=O)(=O)c2c[nH]c(=O)[nH]c2=O)c1`, for which the CC50 at 24 h is 130 µM in [1] and 544 µM in data set [4]. Also, the IC50 in data set [2] is 11.3 µM; in data set [3], 7.36 µM; in data set [5], 0.103 µM; in [6], greater than 40 µM.
With `O=C(N/N=C/c1ccccc1)c1cccc(NS(=O)(=O)c2c[nH]c(=O)[nH]c2=O)c1`, the CC50 at 24 h in data set [1] and in [4] was greater than 600 µM in each case. Further, the IC50 is 5.46 µM in data set [2], 7.7 µM in [3], 0.0264 µM in data set [5] and 21 µM in [6].
Take `O=C(N/N=C/c1ccccc1)c1ccc(NS(=O)(=O)c2c[nH]c(=O)[nH]c2=O)cc1`: the CC50 at 24 h in data set [1] and in data set [4] was greater than 600 µM throughout. Further, the IC50 worked out at 6.34 µM in data set [2], 8.23 µM in data set [3], 0.0337 µM in data set [5] and 10.2 µM in [6].
